Test results from patent US9745325B2, “Fused heterocyclic compound” (Takeda Pharmaceutical Company Limited, priority 2014, dated 2017).
Where a name gives a salt, the structure may show the parent alone.

Experiments:
[1] = molecular target: T1, CDK8/CycC (Homo sapiens, UniProt P49336); assay: CDK8 inhibitory activity (Kinase Tracer-236 / Eu-anti-GST fluorescence assay); type: binding; design: Percent inhibition of CDK8 activity (%): concentration or dose not given beside the values; settings: for Percent inhibition of CDK8 activity (%): test compound concentration given as '1 1.1.1\4' [sic]
T1 construct: purchased Carna Biosciences
T1 sequence (P49336 whole entry): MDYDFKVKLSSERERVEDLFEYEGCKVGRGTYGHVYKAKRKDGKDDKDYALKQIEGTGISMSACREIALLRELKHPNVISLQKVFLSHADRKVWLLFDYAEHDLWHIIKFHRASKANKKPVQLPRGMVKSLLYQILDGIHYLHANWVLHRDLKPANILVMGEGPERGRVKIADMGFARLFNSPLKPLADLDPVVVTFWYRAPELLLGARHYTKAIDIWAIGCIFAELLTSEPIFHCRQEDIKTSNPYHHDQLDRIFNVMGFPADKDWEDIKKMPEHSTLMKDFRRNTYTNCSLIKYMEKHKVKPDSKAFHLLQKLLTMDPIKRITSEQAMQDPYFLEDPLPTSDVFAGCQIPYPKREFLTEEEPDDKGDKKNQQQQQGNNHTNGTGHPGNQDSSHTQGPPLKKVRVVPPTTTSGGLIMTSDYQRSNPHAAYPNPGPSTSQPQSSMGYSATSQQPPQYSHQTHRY
T1 sequence (P24863 whole entry partner): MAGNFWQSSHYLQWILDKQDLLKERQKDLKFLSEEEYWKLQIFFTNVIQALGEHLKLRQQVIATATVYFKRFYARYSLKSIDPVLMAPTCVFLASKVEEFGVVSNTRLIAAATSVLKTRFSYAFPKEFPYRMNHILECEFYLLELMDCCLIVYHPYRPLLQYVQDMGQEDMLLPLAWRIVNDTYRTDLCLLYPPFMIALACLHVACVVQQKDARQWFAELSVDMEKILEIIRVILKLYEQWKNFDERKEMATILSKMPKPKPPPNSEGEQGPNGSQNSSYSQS
Method: (§1) The compound of the present invention was evaluated for its CDK8 inhibitory activity and CDK19 inhibitory activity by the following method. […] The primary diluted solution was dispensed in the amount of 2 μL/well to a 384-well plate, and then, a mixed solution of Eu^3+ Cryptate conjugated mouse monoclonal antibody anti-glutathione S-transferase (Cisbio) diluted 267-fold with an assay buffer and 60 nM Kinase Tracer-236 (Life technologies) was added thereto at 2 μL/well. […] After the addition, the plate was left standing at room temperature for 1 hour, and then, the fluorescence intensity (excitation wavelength 320 nm, fluorescence wavelength 615 nm, 665 nm, delay time 50 μsec) was measured using ann EnVision plate reader (PerkinElmer). The percent inhibition of CDK8 or CDK19 activity by the test compound can be calculated according to the following formula, wherein the fluorescence intensity of a reaction solution in the absence of compound is defined as the control, and the fluorescence intensity of a reaction solution in the presence of 10 μM of control compound is defined as the blank.

[2] = test system: human multiple myeloma RPMI8226 cells; assay: Inhibitory activity against human multiple myeloma RPMI8226 cell growth (CellTiter-Glo); type: cell-based; settings: Homo sapiens, RPMI-8226, 192 h, 1 μM test compound, cultured for 8 days; read-out: Percent inhibition of RPMI8226 cell growth (%)
Method: The compound of the present invention was evaluated for its inhibitory activity against human multiple myeloma RPMI8226 cell growth by the following method.
A suspension of human multiple myeloma RPMI8226 cells (purchased from the Health Protection Agency) was inoculated at 40 μL (300 cells/well) to a 384-well plate and cultured at 37° C. for 1 day in a 5% CO2 incubator. After the culture, each test compound solution was added thereto at a test concentration of 1 μM using TECAN D300, and the cells were further cultured for 8 days. After the culture, CellTiter-Glo™ Luminescent Cell Viability Assay reagent (Promega) was added at 40 μL/well to a 384-well plate, and the amount of luminescence was measured using a luminometer. Inhibitory activity against human multiple myeloma RPMI8226 cell growth (percent inhibition (%)) of the test compound was calculated according to the following formula, which is based on the hypothesis that the amount of residual ATP reflects the number of cells. In this formula, 100% control represents the amount of luminescence from a well with only 0.1% DMSO added. Percent inhibition (%)=(1−(amount of luminescence of the test compound)÷(100% control))×100

[3] = molecular target: T2, CDC2L6/CycC (CDK19) (Homo sapiens, UniProt Q9BWU1); assay: CDK19 inhibitory activity (Kinase Tracer-236 / Eu-anti-GST fluorescence assay); type: binding; design: Percent inhibition of CDK19 activity (%): concentration or dose not given beside the values; settings: for Percent inhibition of CDK19 activity (%): test compound concentration given as '1 1.1.1\4' [sic]
T2 construct: purchased Carna Biosciences Inc
T2 sequence (Q9BWU1 whole entry): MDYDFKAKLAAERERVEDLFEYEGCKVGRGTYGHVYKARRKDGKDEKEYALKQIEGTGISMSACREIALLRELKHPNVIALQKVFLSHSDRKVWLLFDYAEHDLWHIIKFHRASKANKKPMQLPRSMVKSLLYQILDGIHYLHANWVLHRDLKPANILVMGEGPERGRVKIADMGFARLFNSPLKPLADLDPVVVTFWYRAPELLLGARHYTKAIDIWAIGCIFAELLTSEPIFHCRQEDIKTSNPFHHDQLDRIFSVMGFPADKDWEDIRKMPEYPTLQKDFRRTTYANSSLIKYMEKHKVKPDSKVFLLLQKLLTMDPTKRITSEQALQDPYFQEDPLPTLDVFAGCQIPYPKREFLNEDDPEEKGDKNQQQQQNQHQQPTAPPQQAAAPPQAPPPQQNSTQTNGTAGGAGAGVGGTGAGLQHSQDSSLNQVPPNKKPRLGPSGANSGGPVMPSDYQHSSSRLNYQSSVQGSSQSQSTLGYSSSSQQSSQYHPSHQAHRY
T2 sequence (P24863 whole entry partner): as the sequence (P24863 whole entry partner) above
Method: as §1

| SMILES | Percent inhibition of CDK8 activity (%) [1] [%] | inhibition at 1 µM [2] [%] | Percent inhibition of CDK19 activity (%) [3] [%] | IC50 ([1]; control compound, for reference, read-out: CDK8 inhibition IC50) [µM] | IC50 ([3]; control compound, for reference, read-out: CDK19 inhibition IC50) [µM] |
| --- | --- | --- | --- | --- | --- |
| NC(=O)c1sc(Oc2ccc(Br)cc2)c2c1CCc1cnsc1-2 [Example 1, 8-(4-Bromophenoxy)-4,5-dihydrothieno[3,4-g][1,2]benzothiazole-6-carboxamide] | 100 | 56 | 103 | – | – |
| N#Cc1ccc(Oc2sc(C(N)=O)c3c2-c2sncc2CC3)cc1 [Example 2, 8-(4-Cyanophenoxy)-4,5-dihydrothieno[3,4-g][1,2] benzothiazole-6-carboxamide] | 100 | 58 | 100 | – | – |
| NC(=O)c1sc(Oc2ccc(C(=O)N3CCOCC3)cc2)c2c1CCc1cnsc1-2 [Example 3, 8-(4-(Morpholin-4-ylcarbonyl)phenoxy)-4,5-dihydrothieno[3,4-g][1,2]benzothiazole-6-carboxamide] | 97 | 60 | 99 | – | – |
| CN(C)C(=O)c1ccc(Oc2sc(C(N)=O)c3c2-c2sncc2CC3)cc1 [Example 4, 8-(4-(Dimethylcarbamoyl)phenoxy)-4,5-dihydrothieno[3,4-g][1,2] benzothiazole-6-carboxamide] | 97 | 61 | 98 | – | – |
| CCCS(=O)(=O)c1ccc(Oc2sc(C(N)=O)c3c2-c2sncc2CC3)cc1 [Example 5, 8-(4-(Propylsulfonyl)phenoxy)-4,5-dihydrothieno[3,4-g][1,2]benzothiazole-6-carboxamide] | 99 | 63 | 100 | – | – |
| CS(=O)(=O)c1cc(Oc2sc(C(N)=O)c3c2-c2sncc2CC3)ccc1C#N [Example 6, 8-(4-Cyano-3-(methylsulfonyl)phenoxy)-4,5-dihydrothieno[3,4-g][1,2]benzothiazole-6-carboxamide] | 89 | 46 | 84 | – | – |
| Cc1ncccc1Oc1sc(C(N)=O)c2c1-c1sncc1CC2 [Example 7, 8-((2-Methylpyridin-3-yl)oxy)-4,5-dihydrothieno[3,4-g][1,2]benzothiazole-6-carboxamide] | 100 | 69 | 101 | – | – |
| NC(=O)c1sc(Oc2ccc(Cl)nc2)c2c1CCc1cnsc1-2 [Example 10, 8-((6-Chloropyridin-3-yl)oxy)-4,5-dihydrothieno[3,4-g][1,2]benzothiazole-6-carboxamide] | 96 | 60 | 101 | – | – |
| N#Cc1ccc(Oc2sc(C(N)=O)c3c2-c2sncc2CC3)cn1 [Example 11, 8-((6-Cyanopyridin-3-yl)oxy)-4,5-dihydrothieno[3,4-g][1,2]benzothiazole-6-carboxamide] | 96 | 71 | 99 | – | – |
| NC(=O)c1sc(Oc2ccc(C(=O)O)nc2)c2c1CCc1cnsc1-2 [Example 12, 5-((6-Carbamoyl-4,5-dihydrothieno[3,4-g][1,2]benzothiazol-8-yl)oxy)pyridine-2-carboxylic acid] | 100 | 65 | 97 | – | – |
| N=C(N)c1ccc(Oc2sc(C(N)=O)c3c2-c2sncc2CC3)cn1 [Example 14, 8-((6-Carbamimidoylpyridin-3-yl)oxy)-4,5-dihydrothieno[3,4-g][1,2] benzothiazole-6-carboxamide] | 92 | 65 | 97 | – | – |
| CCOC(=O)c1ccc(Oc2sc(C(N)=O)c3c2-c2sncc2CC3)cn1 [Example 15, Ethyl 5-((6-carbamoyl-4,5-dihydrothieno[3,4-g][1,2]benzothiazol-8-yl)oxy)pyridine-2-carboxylate] | 100 | 64 | 102 | – | – |
| NC(=O)c1sc(Oc2ccc(Br)nc2)c2c1CCc1cnsc1-2 [Example 16, 8-((6-Bromopyridin-3-yl)oxy)-4,5-dihydrothieno[3,4-g][1,2]benzothiazole-6-carboxamide] | 98 | 59 | 99 | – | – |
| CNC(=O)c1ccc(Oc2sc(C(N)=O)c3c2-c2sncc2CC3)cn1 [Example 17, 8-((6-(Methylcarbamoyl)pyridin-3-yl)oxy)-4,5-dihydrothieno[3,4-g][1,2]benzothiazole-6-carboxamide] | 102 | 66 | 101 | – | – |
| NC(=O)c1sc(Oc2ccc(C(=O)N3CCOCC3)nc2)c2c1CCc1cnsc1-2 [Example 19, 8-((6-(Morpholin-4-ylcarbonyl)pyridin-3-yl)oxy)-4,5-dihydrothieno[3,4-g][1,2]benzothiazole-6-carboxamide] | 98 | 53 | 93 | – | – |
| CC1(C(=O)Nc2ccc(Oc3sc(C(N)=O)c4c3-c3sncc3CC4)cn2)COC1 [Example 20, 8-((6-(((3-Methyloxetan-3-yl)carbonyl)amino)pyridin-3-yl)oxy)-4,5-dihydrothieno[3,4-g][1,2]benzothiazole-6-carboxamide] | 102 | 66 | 99 | – | – |
| NC(=O)c1sc(Oc2ccc(NC(=O)C3(O)CC3)nc2)c2c1CCc1cnsc1-2 [Example 21, 8-((6-(((1-Hydroxycyclopropyl)carbonyl)amino)pyridin-3-yl)oxy)-4,5-dihydrothieno[3,4-g][1,2]benzothiazole-6-carboxamide] | 106 | 70 | 100 | – | – |
| CC(C)(O)C(=O)Nc1ccc(Oc2sc(C(N)=O)c3c2-c2sncc2CC3)cn1 [Example 22, 8-((6-((2-Hydroxy-2-methylpropanoyl)amino)pyridin-3-yl)oxy)-4,5-dihydrothieno[3,4-g][1,2]benzothiazole-6-carboxamide] | 102 | 71 | 104 | – | – |
| COCCNC(=O)c1ccc(Oc2sc(C(N)=O)c3c2-c2sncc2CC3)c(C)n1 [Example 25, 8-((6-((2-Methoxyethyl)carbamoyl)-2-methylpyridin-3-yl)oxy)-4,5-dihydrothieno[3,4-g][1,2] benzothiazole-6-carboxamide] | 104 | 60 | 100 | – | – |
| Cc1nc(N(C)C(=O)C2CC2)ccc1Oc1sc(C(N)=O)c2c1-c1sncc1CC2 [Example 26, 8-((6-((Cyclopropylcarbonyl)(methyl)amino)-2-methylpyridin-3-yl)oxy)-4,5-dihydrothieno[3,4-g][1,2]benzothiazole-6-carboxamide] | 103 | 66 | 102 | – | – |
| CNc1ccc(Oc2sc(C(N)=O)c3c2-c2sncc2CC3)c(C)n1 [Example 27, 8-((2-Methyl-6-(methylamino)pyridin-3-yl)oxy)-4,5-dihydrothieno[3,4-g][1,2]benzothiazole-6-carboxamide monohydrochloride] | 102 | 81 | 102 | – | – |
| CC(=O)N(C)c1ccc(Oc2sc(C(N)=O)c3c2-c2sncc2CC3)c(C)n1 [Example 28, 8-((6-(Acetyl(methyl)amino)-2-methylpyridin-3-yl)oxy)-4,5-dihydrothieno[3,4-g][1,2]benzothiazole-6-carboxamide] | 101 | 63 | 99 | – | – |
| Oc1ccc(-c2n[nH]cc2-c2ccc3c(c2)OCCO3)c(O)c1 [control compound, 4-(4-(2,3-dihydro-1,4-benzodioxin-6-yl)-1H-pyrazol-3-yl)benzene-1,3-diol, reference compound] | – | – | – | 0.12 | 0.13 |
